Measured values taken from paper PMC5573760 (Cancer Chemotherapy and Pharmacology, 2017).

How the values were obtained:
clinical = conditions: for Tmax: male, human, in vivo, iv, t max
Protocol: All subjects gave written informed consent; the study was conducted at PRA Health Sciences (Zuidlaren, The Netherlands) in accordance with the Declaration of Helsinki and was approved by an accredited institutional ethics committee (Medisch Ethische Toetsings Commissie, Assen, The Netherlands).
Subjects remained fasting until 2-h after the end of the infusion. Volunteers stayed in-house until 14 days after the application and subsequently urine and feces were collected for 24-h on Day 16, 20, 27 and 34 if necessary, cf. below.
Urine was collected pre-dose, at 0–12-h and 12–24 h after the start of the infusion and thereafter over 24-h intervals on Day 2 to Day 14 as well as on Day 16, 20, 27 and 34 (±1 day). Cumulative 24-h fecal samples were collected from Day 1 (day of infusion) to Day 14 and as well as on Day 16, 20, 27 and 34 (±1 day). […] The excreted radioactivity between ambulant visits during the prolongation phase of the clinical study was calculated using interpolation to get a more realistic total excretion value of all subjects (see "Pharmacokinetic analysis").
All samples were frozen at −70 °C and analyzed within 60 days of sample collection.
For blood/plasma ratio determination, total radioactivity in urine and feces well as data from HPLC analysis data from radioactivity measurement by liquid scintillation counting (LSC) were considered. The amount of radioactivity recovered in the excreta (A E) was related to the administered radioactive dose to establish the radioactive balance. Arithmetic means and coefficients of variation (CV) were calculated for these percentages. […] Cumulative excretion was calculated as sum of the collection intervals. The elimination of the total radioactivity in urine and feces for time-points beyond day 14 was performed by log-linear extrapolation between analyzed time-points. Amounts of radioactivity excreted in urine and feces between two ambulant visits were calculated per interpolated day by linear interpolation of log-transformed excretion data separately per matrix (lnA E(interpolated day) = Δdays × [lnA E(Visit i + 1) − lnA E(Visit i)]/[day (Visit i + 1) − day (Visit i)] + lnA E(Visit i), with A E given as amount of radioactivity excreted in matrix per day and Δdays being the difference between the calculated day and the last available visit with A E > 0). In case no feces sample was provided on an ambulant visit, this visit was neglected for interpolation. A similar approach has been described earlier. The concentration/amount for each component of each sample/time-point was calculated by multiplying the total radioactivity concentration/amount of each sample with %-area of each component obtained after off-line HPLC separation. The amount of radioactivity in urine and feces at late time-points where no component was detected was distributed in the same percentage to the component (s) present at the time-point before.
Compartment-free analysis was performed employing WinNonlin software (version 5.3, Pharsight Certara, Princton, NJ, USA).
Pharmacokinetic parameters were evaluated by descriptive data analysis without formal hypothesis testing by calculating either medians (t max, t last) or geometric means and %CV (remaining parameters). Excretion data (urine, feces, total) were evaluated by arithmetic means.

[1] = Mass balance: excretion of radioactivity, copanlisib and metabolites in urine and feces; format: in vivo, human; conditions: 6 subjects; for Amount excreted in feces as this component, arithmetic mean (range) / Amount excreted in urine as this component, arithmetic mean (range): HPLC with off-line radioactivity detection; for Amount of dose recovered as this component in urine and feces combined: urine plus feces
Protocol: After pooling and homogenization of urine and feces samples per time interval, aliquots were stored at −20 °C for total radioactivity determination and at −70°C for metabolic profiling (including blood/plasma samples). For determination of total radioactivity, samples were analyzed with a Perkin Elmer Tri-Carb™ 3100 TR liquid scintillation analyzer (Perkin Elmer, Waltham, MA, USA) with quenching correction. For metabolite profiling, plasma samples were treated with a mixture of acetonitrile (ACN) +0.2% acetic acid, after shaking and centrifugation, the supernatant was concentrated. Urine and feces samples were treated with solid-phase extraction (Waters HLB 30 mg, 1 mL, Waters, Milford, MA, USA) and liquid–liquid extraction (ACN + 0.2% trifluoroacetic acid/water, 80:20 volume/volume), respectively. Subsequently samples from plasma, urine and feces were analyzed by HPLC-LSC on Synergi Polar 4 µm 150 × 2 mm (Phenomenex, Aschaffenburg, Germany) with off-line radioactivity detection by Microbeta^2™ Plus liquid scintillation counter with Ultima Flo™ AP scintillation fluid (Packard Instrument BV, Groningen, The Netherlands).
Metabolite patterns in plasma, urine and feces were studied by the HPLC method with off-line radioactivity detection described above.
A similar approach has been described earlier.

clinical target (PI3K) = system: clinical target (PI3K); set-up: method as in Bayer AG, data on file; conditions: ref Bayer AG, data on file; cited from earlier work

COc1c(OCCCN2CCOCC2=O)ccc2c1N=C(NC(=O)c1cnc(N)nc1)N1CCN=C21 [M1]
Tmax (clinical; median): 6 h
Tmax (clinical; range): 3 to 10 h
Range of AUC (0–t last) (LC–MS) (clinical; plasma, t last defined by the time-point with detectable radioactivity, range of 6 subjects): 4.36–37.8 ng-Eq·h/mL
Amount excreted in feces as this component, arithmetic mean (range) [1]: 6.39 (4.34–8.66) % of dose
Amount of dose recovered as this component in urine and feces combined [1]: 11.1 % of dose
Amount excreted in urine as this component, arithmetic mean (range) [1]: 4.47 (2.53–6.79) % of dose
Affinity to the clinical target relative to parent compound (clinical target (PI3K)): same order of magnitude as found for the parent compound

COc1c(OCCC(=O)O)ccc2c1N=C(NC(=O)c1cnc(N)nc1)N1CCN=C21 [M2]
Amount excreted in feces as this component, arithmetic mean (range) [1]: 11.8 (9.91–13.0) % of dose
Amount excreted in urine as this component, arithmetic mean (range) [1]: 0.34 (0.10–0.52) % of dose

COc1c(OCCCNCCO)ccc2c1N=C(NC(=O)c1cnc(N)nc1)N1CCN=C21 [M3]
Amount excreted in feces as this component, arithmetic mean (range) [1]: 7.32 (5.61–11.6) % of dose
Amount excreted in urine as this component, arithmetic mean (range) [1]: 0.32 (0–0.62) % of dose

COc1c(O)ccc2c1N=C(NC(=O)c1cnc(N)nc1)N1CCN=C21 [M4]
Amount excreted in feces as this component, arithmetic mean (range) [1]: 5.61 (1.74–9.53) % of dose
Amount excreted in urine as this component, arithmetic mean (range) [1]: 0.15 (0.04–0.32) % of dose

COc1c(OCCCO)ccc2c1N=C(NC(=O)c1cnc(N)nc1)N1CCN=C21 [M15]
Amount of dose recovered as this component in urine and feces combined [1]: < 2 % of dose

COc1c(OCCCN(C=O)CCO)ccc2c1N=C(NC(=O)c1cnc(N)nc1)N1CCN=C21 [M21]
Amount of dose recovered as this component in urine and feces combined [1]: < 2 % of dose
